# Data reported in patent US20090136470A1, “REGULATORY T CELLS AND METHODS OF MAKING AND USING SAME” (priority 2007, published 2009).
# Where two headings read alike, the source gives them in different places.
# Experiments:
# [1] = system: CD4^+CD25^− spleen T cells; assay: Th-17 differentiation of CD4 T cells stimulated with dendritic cells or spleen APCs plus TGF-β and IL-6 (intracellular IL-17 staining, IL-17 ELISA); assay type: cell-based, mouse
# Experimental: (§1) For CD4^+CD25^− T cell isolation, spleens were removed, teased into cell-single suspensions and filtered through a 70 μm cell strainer (Fisher Scientific, USA). CD4^+CD25^−T cells were isolated by negative selection after incubation with a mix of specific biotin-conjugated mAbs (anti-CD8, CD11b, CD11ε, CD25, CD45R (B220), NK1.1, and TER119) at 1/200 dilution, and anti-biotin magnetic microbeads (25-40 μl per spleen) (Miltenyi Biotec, USA).
# (§2) For dendritic cells isolation, spleen and MLN were chopped and digested by collagenase type D (Roche, USA) for 30 min at room temperature. Digested tissues were treated with 5 mM of EDTA for additional 5 min and mashed through a 70 μm cell strainer. Subsequently, CD11c^+ cells were enriched by positive selection using anti-CD11c microbeads according to the manufacturer's protocol (Miltenyi Biotec, USA). Enriched populations were stained with CD45-APC, CD 11c-PE, I-A^b-FITC and TCR β and sorted for TCRβ^−CD45^+CD11c^+I-Ab^+ by flow cytometry using a FACS-DIVA cell sorter (USA).
# (§3) The culture medium used for dendritic cell-T cell cultures was Iscove's modified Dulbecco medium (IMDM) (Gibco, USA) supplemented with 10% heat-inactivated FCS, 2 mM L-glutamine, 100 U/ml penicillin, 100 μg/ml streptomycin, and 5 mM β-mercaptoethanol (all Sigma, USA). […] For dendritic cell-T cell cultures, 2×10^4 dendritic cells and 1×10^5 T cells were cultured in a volume of 200 μl (96-well plates). For irradiated APC-T cell cultures, 5×10^5 APCs and 1×10^5 T cells were cultured in a volume of 200 μl in 96-well plates (2×10^6 APCs and 0.5×10^6 T cells per well in 48-well plates). […] For the study shown in FIG. 4A, after sorting of naive CD4^+ cells (CD25^−CD44^lowCD62L^+), cells were washed twice in PBS+0.1% BSA, counted and labeled with 2 μM of CFSE (Carboxyfluorescein diacetate, succinimidyl ester) (Molecular Probes, USA) at a concentration of 5−10×10^6 cells per ml in PBS-0.1% BSA.
# To block non-specific staining, the 2.4G2 anti-CD16/32 antibody was added.
# CD4^+CD25^−T cells [2] = assay: CTLA-4, CD103, CCR9 and CD25 staining of CD4 T cells stimulated with spleen APCs plus TGF-β1 and/or RA; assay type: cell-based, mouse; settings: TGF-β1 added to RA
# Experimental: as §1
# APCs were isolated from spleen of C57BL/6 mice by negative selection using CD90.2 (Thy1.2) magnetic microbeads to deplete T cells (Miltenyi Biotec).
# as §3
# (§4) To block non-specific staining, the 2.4G2 anti-CD16/32 antibody was added. […] For intracellular cytokine staining, cells obtained from in vitro cultures or isolated IELs were incubated for 4-5 hours with 50 ng/ml PMA, 750 ng/ml Ionomycin (both Sigma, USA) and 10 μg/ml Brefeldin A (Invitrogen, USA) in a tissue culture incubator at 37° C.
# [3] = system: CD4 cells cultured with MLN DCs (MDC) or splenic DCs (SDC); assay: Retinal (RAL): TGF-β mediated Foxp3 induction (Treg differentiation) in DC/T cell co-cultures; assay type: cell-based
# CD4^+CD25^−T cells [4] = assay: TGF-β-dependent Foxp3 induction (Treg differentiation) in CD4 T cells with dendritic cells or APCs; assay type: cell-based, mouse; settings: OT-II CD4 cells, OVAp, TGF-β1; LE135 1 μM, RA 100 nM
# Experimental: as §1, §2, §3
# For Foxp3 staining, no stimulation with PMA/Ionomycin was performed, with the exceptions of FIGS. 8B and 9A. […]
# RAR = settings: cited from earlier work
# [5] = system: retinoic-acid orphan receptor RORg-t; assay: Retinal (RAL): RORg-t in APC-free system; assay type: cell-based
# RXR = settings: cited from earlier work
# [6] = system: CD4 cells cultured with either MLN DCs (MDC) or splenic DCs (SDC); assay: Retinal (RAL): TH-17 differentiation and IL-17 production in DC/T cell co-cultures; assay type: cell-based
# PPAR-γ = target: T1, PPAR-γ (Homo sapiens, UniProt P37231); settings: cited from earlier work
# T1 sequence (P37231 1-505): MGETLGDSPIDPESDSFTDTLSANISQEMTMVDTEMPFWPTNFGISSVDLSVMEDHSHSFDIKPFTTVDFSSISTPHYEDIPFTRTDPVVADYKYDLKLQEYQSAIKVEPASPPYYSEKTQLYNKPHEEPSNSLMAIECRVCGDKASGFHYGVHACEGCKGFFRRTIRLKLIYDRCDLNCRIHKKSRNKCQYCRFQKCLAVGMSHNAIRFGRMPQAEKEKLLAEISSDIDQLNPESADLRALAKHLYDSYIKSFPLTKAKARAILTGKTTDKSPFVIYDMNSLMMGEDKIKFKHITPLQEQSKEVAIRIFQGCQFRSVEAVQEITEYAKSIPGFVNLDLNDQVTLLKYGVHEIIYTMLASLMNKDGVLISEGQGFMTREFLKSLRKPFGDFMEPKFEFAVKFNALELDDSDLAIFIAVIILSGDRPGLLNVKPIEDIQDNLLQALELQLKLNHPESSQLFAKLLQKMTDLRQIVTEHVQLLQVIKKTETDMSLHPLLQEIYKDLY
# [7] = system: CD4^+T cells from small intestine lamina propria and spleen; assay: Oral Listeria monocytogenes infection (and naïve mice) treated with RA or LE540: IL-17^+ and Foxp3^+ CD4 T cells; assay type: in vivo, mouse
# Text: Listeria monocytogenes (strain WT LMOVA) was used. Mice were orally infected (gavage) with 5×10^8 CFU of L. monocytogenes. Mice received i.p. injections of vehicle, RA or LE540 on the same day and 2 days after infection. Mice were sacrificed 5 days post-infection for analysis.
# Every second day, in a interval of two weeks, naïve mice received gavage of either vehicle, RA or LE540.
# Liver lymphocytes were isolated using 37.5% isotonic Percoll (GE Healthcare, USA), as previously described [Y. Kinjo et al, Nat Immunol 7, 978 (2006)]. Intestinal lymphocytes were isolated and prepared as previously described [Aranda et al., J Immunol 158, 3464 (1997)]. Briefly, small and large intestines were removed and placed in chilled HBSS media containing 5% FCS. The intestines were carefully cleaned from the mesentery and flushed of fecal content. Intestines were opened longitudinally and then cut into 1 cm pieces. The intestinal tissue was transferred to a 250-ml Erlenmeyer flasks containing 25 ml of preheated HBSS complemented with 2% FCS and 1 mM DTT (Sigma, USA) and shaken at 200 rpm for 40 min at 37° C. The tissue suspension was passed through a stainless steel sieve into 50-ml conical tubes and the cells were pelleted by centrifugation at 1200 rpm for 10 min at 4° C. The cell pellet was resuspended in complete HBSS, layered over a discontinuous 40/70% Percoll gradient, and centrifuged at 2000 rpm for 30 min. Cells from the 40/70% interface were collected, washed and resuspended in complete RPMI media. These purified cells constituted the intraepithelial lymphocyte (IEL) population. To isolate the lamina propria lymphocytes (LPL), the remaining intestinal tissue in the stainless steel sieve was minced and transferred to conical tubes. The minced pieces were resuspended in 20 ml of complete RPMI containing 1 mg/ml of collagenase (Sigma, USA) and shaken at 200 rpm for 40 min at 37° C. The tissue suspension was collected and passed through a 70 μm cell strainer and the cells were pelleted by centrifugation at 1200 rpm. The cells were then resuspended and layered onto a 40/70% Percoll gradient, centrifugated and processed as described above for the IEL preparation.
# as §4
# For Foxp3 staining, no stimulation with PMA/Ionomycin was performed, with the exceptions of FIGS. 8B and 9A. In these cases, the time of incubation with PMA/Ion was reduced to 3.5 hours. Intracellular Foxp3 staining was performed as per the eBioscience's Foxp3-staining kit protocol.
compound,measurement,setting,value
"CC1=C(/C=C/C(C)=C\C=C\C(C)=C\C(=O)O)C(C)(C)CCC1 [9-cis RA, 9-cis retinoic acid]",Th-17 differentiation by spleen dendritic cells,"[1]; added to cultures with TGF-β and IL-6, 100 nM",also inhibited the Th-17 differentiation by spleen dendritic cells
"TGF-β: cytokine, transforming growth factor-beta, exogenous, 5 ng/ml (R&D Systems)",RA-induced CCR9 expression,CD4^+CD25^−T cells [2],partially antagonized
CN1c2cc3c(cc2N=C(c2ccc(C(=O)O)cc2)c2ccccc21)C(C)(C)CCC3(C)C [LE135],effect of RAR antagonist on RAL-increased Foxp3 induction,[3]; LE135 added with RAL,reversed Foxp3 induction
same,relative inefficiency of MLN dendritic cells to mediate Th-17 differentiation,"[1]; RAR antagonist included during activation under Th-17 conditions, 1 μM",reversed
same,TGF-β-dependent Foxp3 induction by MLN dendritic cells,CD4^+CD25^−T cells [4],reduced
"CC1=C(/C=C/C(C)=C/C=C/C(C)=C/C=O)C(C)(C)CCC1 [RAL, retinal]",binding to RAR,RAR,does not bind
same,TGF-β mediated Foxp3 induction / Treg differentiation,[3],enhance TGF-β mediated Foxp3 induction
same,"increased induction of Foxp3, MDC versus SDC cultures",[3]; DC/T cell co-cultures,observed mainly in MDC cultures
same,TGF-β mediated Foxp3 induction / Treg differentiation,[3]; listed as retinal,enhances Treg differentiation
same,RORg-t,[5],inhibited
same,binding to RXR,RXR,shown to bind
same,TH-17 differentiation,[6],able to inhibit TH-17 differentiation
same,IL-17 production from CD4 cells,[6]; cultured with either MLN DCs (MDC) or splenic DCs (SDC),suppresses IL-17 production
same,TH-17 differentiation,[6]; listed as retinal,suppressor of TH-17 differentiation
same,binding to PPAR-γ,PPAR-γ,shown to bind
CC(C)=CCCC(C)=CC=O [citral],effect of RALDH inhibition on RAL effects on TH-17 differentiation,[6]; citral added with RAL,does not reverse RAL effects
CN1c2cc3c(cc2N=C(c2ccc(C(=O)O)cc2)c2ccc4ccccc4c21)C(C)(C)CCC3(C)C [LE540],"Th-17 mucosal T cells (IL-17 staining of CD4^+T cells, small intestine lamina propria)","[7]; 5 days after oral L. monocytogenes infection, i.p. days 0 and 2, RA 300 μg/mouse, LE540 100 μg/mouse",no apparent difference compared to the controls
same,differentiation / number of mucosal Foxp3^+Treg cells (small intestine lamina propria),"[7]; Lm challenged mice, 5 days after oral infection",significantly reduce
same,spleen Foxp3^+CD4 cells,[7]; Lm infected mice (2 i.p. injections) and naïve mice (2-week gavage),No effect
